We go through 25 molecules from ChEMBL document CHEMBL1641534, “Synthesis and antibacterial activity study of a novel class of cationic anthraquinone analogs” (Bioorg Med Chem, 2011).

Values after ≈ are worked out from the molar mass of the structure shown. Active and inactive are the calls of the source. No cut-off for these calls is given here.

The subject of data set [1] is Enterococcus faecalis. The data set is described as follows: Antibacterial activity against vancomycin-resistant Enterococcus faecalis ATCC 51299 after 12 to 18 hrs by twofold dilution method. The class given is functional.
For data set [2], the system named is Escherichia coli. The experiment in a line: Antibacterial activity against Escherichia coli ATCC 25922 after 12 to 18 hrs by twofold dilution method. The class given is functional.
Data set [3] relates to Enterococcus faecalis. The experiment in a line: Antibacterial activity against Enterococcus faecalis ATCC 29212 after 12 to 18 hrs by twofold dilution method. The class given is functional.
Data set [4] has as its system Staphylococcus aureus. The experiment in a line: microbe, parasite or virus in culture. The following applies: ATCC 33591. The data set is classed as functional.
Description: (§1) Antibacterial activity against methicillin-resistant Staphylococcus aureus ATCC 33591 after 12 to 18 hrs by twofold dilution method
In data set [5] the test system is Pseudomonas aeruginosa. The experiment in a line: Antibacterial activity against Pseudomonas aeruginosa ATCC 27853 after 12 to 18 hrs by twofold dilution method. The class given is functional.
Data set [6] relates to Klebsiella pneumoniae. The data set is described as follows: Antibacterial activity against Klebsiella pneumoniae ATCC 13883 after 12 to 18 hrs by twofold dilution method. The data set is classed as functional.
For data set [7], the system named is Staphylococcus aureus. The data set is described as follows: microbe, parasite or virus in culture. The data set is classed as functional. Conditions: ATCC 25923.
Description: (§2) Antibacterial activity against Staphylococcus aureus ATCC 25923 after 12 to 18 hrs by twofold dilution method
Data set [8] deals with Mycolicibacterium smegmatis. The experiment in a line: Antibacterial activity against Mycobacterium smegmatis ATCC 14468 after 12 to 18 hrs by twofold dilution method. The class given is functional.
For data set [9], the system named is Staphylococcus aureus. The following applies: ATCC 33591.
Description: as §1
Data set [10] relates to Enterococcus faecalis. Conditions: ATCC 29212.
The test system of data set [11] is Enterococcus faecalis. Conditions: ATCC 51299.
Data set [12] deals with Escherichia coli. The following applies: ATCC 25922.
The subject of data set [13] is Pseudomonas aeruginosa. The following applies: ATCC 27853.
Data set [14] concerns Klebsiella pneumoniae. Conditions: ATCC 13883.
Data set [15] has as its system Mycolicibacterium smegmatis. Conditions: ATCC 14468.
Data set [16] has as its system Staphylococcus aureus. The following applies: ATCC 25923.
Description: as §2
For data set [17], the system named is Escherichia coli. The experiment in a line: Antibacterial activity against Escherichia coli ATCC 25922 by agar diffusion assay. The class given is functional, organism-based.
Data set [18] in a line: Solubility of the compound in aqueous medium. The class given is physicochemical. Conditions: buffer.
Data set [19] has as its system Staphylococcus aureus. The experiment in a line: Antibacterial activity against Staphylococcus aureus ATCC 25923 by agar diffusion assay. The class given is functional, organism-based. (A growth-free zone around the sample is the usual read-out of agar diffusion tests.)

With `CCCCCn1n[n+](C)c2c1C(=O)c1ccccc1C2=O.[Cl-]`, the MIC against Enterococcus faecalis [1] is 125 µg/mL; in the data set on Escherichia coli [2], 8 µg/mL; with Enterococcus faecalis [3], not below 250 µg/mL; in the data set on Staphylococcus aureus [4], 1 µg/mL; with Pseudomonas aeruginosa [5] it was not below 250 µg/mL; in the data set on Klebsiella pneumoniae [6], 32 µg/mL. Also, the MIC in the data set with Staphylococcus aureus [7] worked out at 2 µg/mL; in data set [8] it was 8 µg/mL.

With `CCCCCCCCCCCCn1n[n+](C)c2c1C(=O)c1ccccc1C2=O.[Cl-]`, the MIC in the data set with Enterococcus faecalis [1] was found to be 4 µg/mL; in the data set on Escherichia coli [2], 2 µg/mL; against Enterococcus faecalis [3], 4 µg/mL; with Staphylococcus aureus [4] it was 0.25 µg/mL; against Pseudomonas aeruginosa [5], 16 µg/mL; against Klebsiella pneumoniae [6], 2 µg/mL. For the same molecule, the MIC turned out to be 0.032 µg/mL against Staphylococcus aureus [7] and 1 µg/mL in [8].

For hexadecyltrimethylammonium bromide, the MIC with Staphylococcus aureus [9] is 2 µg/mL; against Enterococcus faecalis [10], 2 µg/mL; against Enterococcus faecalis [11], 4 µg/mL; with Escherichia coli [12], 1 µg/mL; in the data set on Pseudomonas aeruginosa [13], 16 µg/mL; in the data set on Klebsiella pneumoniae [14] it was 1 µg/mL. Further, the results for the MIC (in data set [15]; with Staphylococcus aureus [16]) were 1 µg/mL and 0.5 µg/mL, respectively.

For `C[n+]1nn(Cc2ccccn2)c2c1C(=O)c1ccccc1C2=O.[Cl-]`, the MIC in the data set on Enterococcus faecalis [1] was not below 250 µg/mL; against Escherichia coli [2], 16 µg/mL; against Enterococcus faecalis [3] it was not below 250 µg/mL; against Staphylococcus aureus [4] it was 2 µg/mL; against Pseudomonas aeruginosa [5] it was not below 250 µg/mL; against Klebsiella pneumoniae [6], 16 µg/mL. For the same molecule, the MIC against Staphylococcus aureus [7] was 2 µg/mL; in data set [8] it was 16 µg/mL.

Turning to `O=C1c2ccccc2C(=O)c2c1nnn2Cc1ccccc1`, the outcome with Escherichia coli [17] and in the data set with Staphylococcus aureus [19] was inactive. Besides, the solubility result in [18] is “Insoluble”.

Regarding `CCn1nnc2c1C(=O)c1ccccc1C2=O`, the outcome in the data set with Escherichia coli [17] and in the data set on Staphylococcus aureus [19] was inactive. For the same molecule, the solubility result in data set [18] is given as “Insoluble”.

For the molecule `CCCCn1nnc2c1C(=O)c1ccccc1C2=O`, the result with Escherichia coli [17] and in the data set with Staphylococcus aureus [19] was inactive. For the same molecule, in data set [18], the solubility entry is reported as “Insoluble”.

For the molecule `CCCCCCCCn1n[n+](C)c2c1C(=O)c1ccccc1C2=O.[Cl-]`, the MIC against Enterococcus faecalis [1] is 125 µg/mL; with Escherichia coli [2], 8 µg/mL; in the data set on Enterococcus faecalis [3] it was 125 µg/mL; against Staphylococcus aureus [4], 0.5 µg/mL; against Pseudomonas aeruginosa [5], not below 250 µg/mL; in the data set on Klebsiella pneumoniae [6], 8 µg/mL. In addition, the results for the MIC (with Staphylococcus aureus [7]; in data set [8]) were 0.032 µg/mL and 1 µg/mL, respectively.

Turning to `CCn1n[n+](C)c2c1C(=O)c1ccccc1C2=O.[Cl-]`, the MIC in the data set on Enterococcus faecalis [1] is not below 250 µg/mL; against Escherichia coli [2], 16 µg/mL; against Enterococcus faecalis [3], not below 250 µg/mL; with Staphylococcus aureus [4] it was 1 µg/mL; in the data set with Pseudomonas aeruginosa [5] it was not below 250 µg/mL; against Klebsiella pneumoniae [6], 32 µg/mL. Moreover, the MIC worked out at 1 µg/mL against Staphylococcus aureus [7] and 16 µg/mL in [8].

With `Cn1nnc2c1C(=O)c1ccccc1C2=O`, the outcome in the data set with Escherichia coli [17] and in the data set with Staphylococcus aureus [19] was inactive. In addition, the solubility entry in data set [18] is listed as “Insoluble”.

In the case of `C[n+]1nn(C2CCNCC2)c2c1C(=O)c1ccccc1C2=O.[Cl-]`, the MIC in the data set on Enterococcus faecalis [1] was not below 250 µg/mL; against Escherichia coli [2], 32 µg/mL; against Enterococcus faecalis [3], not below 250 µg/mL; with Staphylococcus aureus [4], 2 µg/mL; in the data set with Pseudomonas aeruginosa [5] it was 64 µg/mL; with Klebsiella pneumoniae [6] it was 64 µg/mL. Further, the MIC in the data set on Staphylococcus aureus [7] amounted to 2 µg/mL; in data set [8], 16 µg/mL.

`CCCCn1n[n+](C)c2c1C(=O)c1ccccc1C2=O.[Cl-]`: the MIC with Enterococcus faecalis [1] is not below 250 µg/mL; with Escherichia coli [2], 16 µg/mL; with Enterococcus faecalis [3] it was not below 250 µg/mL; against Staphylococcus aureus [4], 1 µg/mL; against Pseudomonas aeruginosa [5], not below 250 µg/mL; in the data set on Klebsiella pneumoniae [6] it was 32 µg/mL. Besides, the values for the MIC (against Staphylococcus aureus [7]; in data set [8]) were 2 µg/mL and 16 µg/mL, respectively.

As to `CCCCCCCCCCCCCCCC[N+](C)(C)Cc1ccccc1.[Cl-]` [CETALKONIUM CHLORIDE], the values for the MIC with Staphylococcus aureus [4] and with Staphylococcus aureus [7] were 1 µg/mL and 2 µg/mL, respectively.

For `NCC[C@H](O)C(=O)N[C@@H]1C[C@H](N)[C@@H](O[C@H]2O[C@H](CN)[C@@H](O)[C@H](O)[C@H]2O)[C@H](O)[C@H]1O[C@H]1O[C@H](CO)[C@@H](O)[C@H](N)[C@H]1O` [AMIKACIN], the MIC in the data set on Enterococcus faecalis [1] is not below 250 µg/mL; against Escherichia coli [2] it was 1 µg/mL (≈ 1.71 µM); against Enterococcus faecalis [3], 32 µg/mL (≈ 54.6 µM); in the data set on Staphylococcus aureus [4], 16 µg/mL (≈ 27.3 µM); against Pseudomonas aeruginosa [5], 0.25 µg/mL (≈ 0.427 µM); against Klebsiella pneumoniae [6], 1 µg/mL (≈ 1.71 µM). In addition, the MIC against Staphylococcus aureus [7] amounted to 0.5 µg/mL (≈ 0.854 µM); in [8] it was 0.25 µg/mL (≈ 0.427 µM).

Consider `Cn1n[n+](C)c2c1C(=O)c1ccccc1C2=O.[Cl-]`, for which the MIC in the data set on Enterococcus faecalis [1] is 125 µg/mL; against Escherichia coli [2] it was 32 µg/mL; in the data set with Enterococcus faecalis [3], not below 250 µg/mL; in the data set on Staphylococcus aureus [4], 4 µg/mL; with Pseudomonas aeruginosa [5], 125 µg/mL; with Klebsiella pneumoniae [6], 64 µg/mL. The MIC against Staphylococcus aureus [7] came out at 4 µg/mL; in data set [8] it was 32 µg/mL.

In the case of `NC[C@H]1O[C@H](O[C@H]2[C@H](O)[C@@H](O[C@H]3O[C@H](CO)[C@@H](O)[C@H](N)[C@H]3O)[C@H](N)C[C@@H]2N)[C@H](O)[C@@H](O)[C@@H]1O` [KANAMYCIN], the MIC against Escherichia coli [2] was 2 µg/mL (≈ 4.13 µM); against Staphylococcus aureus [4], 125 µg/mL (≈ 258 µM); in the data set with Pseudomonas aeruginosa [5], 125 µg/mL (≈ 258 µM); in the data set with Klebsiella pneumoniae [6], 0.5 µg/mL (≈ 1.03 µM); with Staphylococcus aureus [7], 1 µg/mL (≈ 2.06 µM); in data set [8], 1 µg/mL (≈ 2.06 µM).

On to `C[n+]1nn(Cc2ccccc2)c2c1C(=O)c1ccccc1C2=O.[Cl-]`, for which the MIC against Enterococcus faecalis [1] is not below 250 µg/mL; against Escherichia coli [2], 8 µg/mL; in the data set with Enterococcus faecalis [3], not below 250 µg/mL; in the data set on Staphylococcus aureus [4] it was 0.5 µg/mL; against Pseudomonas aeruginosa [5], 125 µg/mL; in the data set on Klebsiella pneumoniae [6], 8 µg/mL. The MIC in the data set with Staphylococcus aureus [7] was determined as 2 µg/mL; in data set [8], 8 µg/mL.

For the molecule `CCCCCCCCCCCCn1nnc2c1C(=O)c1ccccc1C2=O`, the result in the data set on Escherichia coli [17] and in the data set with Staphylococcus aureus [19] was inactive. Also, the solubility entry in [18] is “Insoluble”.

For `CC(C)(C)OC(=O)N1CCC(n2nnc3c2C(=O)c2ccccc2C3=O)CC1`, the result in the data set with Escherichia coli [17] and in the data set with Staphylococcus aureus [19] was inactive. The solubility entry in data set [18] is “Insoluble”.

On to `O=C1c2ccccc2C(=O)c2c1nnn2Cc1ccccn1`, for which the result with Escherichia coli [17] and in the data set on Staphylococcus aureus [19] was inactive. Moreover, the solubility entry in data set [18] is “Insoluble”.

`CCCCCCCCCCCCCCCCn1nnc2c1C(=O)c1ccccc1C2=O`: the result with Escherichia coli [17] and in the data set on Staphylococcus aureus [19] was inactive. Moreover, the solubility result in data set [18] is on record as “Insoluble”.

As for `NC[C@@H]1O[C@H](O[C@H]2[C@@H](O)[C@H](O[C@@H]3[C@@H](O)[C@H](N)C[C@H](N)[C@H]3O[C@H]3O[C@H](CN)[C@@H](O)[C@H](O)[C@H]3N)O[C@@H]2CO)[C@H](N)[C@@H](O)[C@@H]1O` [FRAMYCETIN], the MIC in the data set with Enterococcus faecalis [1] amounted to 125 µg/mL (≈ 203 µM); against Escherichia coli [2] it was 4 µg/mL (≈ 6.51 µM); against Enterococcus faecalis [3] it was 16 µg/mL (≈ 26 µM); in the data set on Staphylococcus aureus [4], 125 µg/mL (≈ 203 µM); in the data set on Pseudomonas aeruginosa [5], 64 µg/mL (≈ 104 µM); against Klebsiella pneumoniae [6], 2 µg/mL (≈ 3.25 µM). Further, the MIC against Staphylococcus aureus [7] was determined as 1 µg/mL (≈ 1.63 µM).

In the case of `CN[C@H](CC(C)C)C(=O)N[C@H]1C(=O)N[C@@H](CC(N)=O)C(=O)N[C@H]2C(=O)N[C@H]3C(=O)N[C@H](C(=O)N[C@H](C(=O)O)c4cc(O)cc(O)c4-c4cc3ccc4O)[C@H](O)c3ccc(c(Cl)c3)Oc3cc2cc(c3O[C@@H]2O[C@H](CO)[C@@H](O)[C@H](O)[C@H]2O[C@H]2C[C@](C)(N)[C@H](O)[C@H](C)O2)Oc2ccc(cc2Cl)[C@H]1O` [VANCOMYCIN], the MIC was 125 µg/mL (≈ 86.3 µM) with Enterococcus faecalis [1]; not below 250 µg/mL against Escherichia coli [2]; 1 µg/mL (≈ 0.69 µM) in the data set on Enterococcus faecalis [3]; not below 250 µg/mL in the data set on Pseudomonas aeruginosa [5]; not below 250 µg/mL in the data set with Klebsiella pneumoniae [6].

For `CCCCCn1nnc2c1C(=O)c1ccccc1C2=O`, the result in the data set on Escherichia coli [17] and in the data set on Staphylococcus aureus [19] was inactive. Also, the solubility entry in [18] is “Insoluble”.

In the case of `CCCCCCCCn1nnc2c1C(=O)c1ccccc1C2=O`, the result in the data set on Escherichia coli [17] and in the data set on Staphylococcus aureus [19] was inactive. In addition, the solubility result in data set [18] is “Insoluble”.
